Where two headings read alike, the source gives them in different places.
Key:
[1] = system: pancreatic cancer (8 cell lines); experiment: CellTiter-Glo Viability Assay, pancreatic cancer; type: cell-based; settings: Homo sapiens, inhibition of cancer cell proliferation
[2] = system: liver cancer (3 cell lines); experiment: CellTiter-Glo Viability Assay, liver cancer; type: cell-based; settings: Homo sapiens, inhibition of cancer cell proliferation
MCF7 = experiment: CellTiter-Glo Viability Assay, breast cancer; type: cell-based; settings: Homo sapiens, 96 h; MCF7, breast cancer, four days; read-out: EC50
ZR-75-1 = experiment: CellTiter-Glo Viability Assay, breast cancer; type: cell-based; settings: Homo sapiens, 96 h; ZR-75-1, breast cancer, four days; read-out: EC50
BT-549 = experiment: CellTiter-Glo Viability Assay, breast cancer; type: cell-based; settings: Homo sapiens, 96 h; BT-549, breast cancer, four days; read-out: EC50
T47D = experiment: CellTiter-Glo Viability Assay, breast cancer; type: cell-based; settings: Homo sapiens, 96 h, breast cancer, four days, read-out: EC50
HCC1599 = experiment: CellTiter-Glo Viability Assay, breast cancer; type: cell-based; settings: Homo sapiens, 96 h; HCC1599, breast cancer, four days; read-out: EC50
CAMA1 = experiment: CellTiter-Glo Viability Assay, breast cancer; type: cell-based; settings: Homo sapiens, CAMA-1, 96 h; CAMA1, breast cancer, four days; read-out: EC50
DU4475 = experiment: CellTiter-Glo Viability Assay, breast cancer; type: cell-based; settings: Homo sapiens, DU-4475, 96 h; DU4475, breast cancer, four days; read-out: EC50
MDA-MB-231-Luc = experiment: CellTiter-Glo Viability Assay, breast cancer; type: cell-based; settings: Homo sapiens, 96 h; MDA-MB-231-Luc, breast cancer, four days; read-out: EC50
[3] = system: prostate cancer (5 cell lines); experiment: CellTiter-Glo Viability Assay, prostate cancer; type: cell-based; settings: Homo sapiens
[4] = system: ovarian cancer (4 cell lines); experiment: CellTiter-Glo Viability Assay, ovarian cancer; type: cell-based; settings: Homo sapiens, inhibition of cancer cell proliferation
CLK3 = CLK3 (Homo sapiens, UniProt P49761); experiment: CLK3 kinase activity assay (Z-lyte, Ser/Thr 18 peptide)
Sequence of CLK3 (P49761 whole entry): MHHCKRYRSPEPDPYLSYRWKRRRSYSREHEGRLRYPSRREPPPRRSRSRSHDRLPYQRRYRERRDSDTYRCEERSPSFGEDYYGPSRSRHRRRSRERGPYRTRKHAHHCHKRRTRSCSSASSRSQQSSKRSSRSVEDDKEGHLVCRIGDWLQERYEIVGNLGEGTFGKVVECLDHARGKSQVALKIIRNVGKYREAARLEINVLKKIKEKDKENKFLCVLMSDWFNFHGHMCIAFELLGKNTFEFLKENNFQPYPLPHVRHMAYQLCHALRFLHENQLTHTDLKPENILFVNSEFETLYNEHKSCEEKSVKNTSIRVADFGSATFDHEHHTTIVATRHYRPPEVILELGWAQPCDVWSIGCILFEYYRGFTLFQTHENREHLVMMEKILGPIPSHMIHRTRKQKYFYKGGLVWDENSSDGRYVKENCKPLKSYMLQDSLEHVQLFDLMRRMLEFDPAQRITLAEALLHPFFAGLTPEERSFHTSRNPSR
Description: Each compound was dissolved in DMSO as a 10 mM stock and used to prepare compound source plates.
This is a non-radioactive assay using fluorescence resonance energy transfer (FRET) between coumarin and fluorescein to detect kinase activity which is represented as a ratio of coumarin emission/fluorescein emission.
All reactions were performed in duplicate. Unphosphorylated (“0% Control”) and phosphorylated (“100% control”) forms of Ser/Thr 18 served as control reactions. Additionally, an 11-point dose-response curve of Staurosporine (1 uM top) was run to serve as a positive compound control.
After incubation, Development Reagent A was diluted in Development Buffer then added to the reaction and allowed to further incubate for one hour at room temperature.
Dose-response curves were generated and inhibitory concentration (IC50) values were calculated using non-linear regression curve fit in the Dotmatics' Studies Software (Bishops Stortford, UK).
Compounds were acoustically transferred on 1536-well plates (Echo 550, LabCyte) instrument. Kinase, peptide, and ATP reagents from the Z′-LYTE Kinase Assay Kits (Thermo Fisher) were dispensed onto the compound plates using an EL406 liquid dispenser (BioTek). Plates were incubated in the dark at room temperature for 1 hr. Development reagent was added to the plates and then incubated in the dark at room temperature for 1 hr. Fluorescence signal form the plate was then read using an EnVision Multilabel Plate Reader (Perkin Elmer).

CLK2 = biological target: T1, CLK2 (Homo sapiens, UniProt P49760); experiment: CLK2 kinase activity assay (Z-lyte, Ser/Thr 6 peptide); type: biochemical; settings: recombinant CLK2 kinase, ATP 60 μM; read-out: EC50
T1 construct: purchased Thermo Fisher (Life Technologies), Z'-LYTE Kinase Assay Kits
T1 sequence (P49760 whole entry): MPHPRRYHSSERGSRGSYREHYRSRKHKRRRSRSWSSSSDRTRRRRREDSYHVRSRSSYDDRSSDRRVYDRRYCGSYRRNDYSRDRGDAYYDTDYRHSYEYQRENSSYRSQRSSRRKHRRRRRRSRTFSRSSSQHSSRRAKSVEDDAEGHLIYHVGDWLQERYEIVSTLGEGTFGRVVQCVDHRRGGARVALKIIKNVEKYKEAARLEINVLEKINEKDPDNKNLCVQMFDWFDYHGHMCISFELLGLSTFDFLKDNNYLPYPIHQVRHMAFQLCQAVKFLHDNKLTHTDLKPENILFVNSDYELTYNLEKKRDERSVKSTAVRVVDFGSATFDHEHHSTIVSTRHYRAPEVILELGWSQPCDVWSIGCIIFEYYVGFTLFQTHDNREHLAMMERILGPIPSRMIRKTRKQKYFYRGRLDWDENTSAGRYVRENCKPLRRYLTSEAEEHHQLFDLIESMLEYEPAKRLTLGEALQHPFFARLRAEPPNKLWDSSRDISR
Description: All reactions were performed in duplicate.

[5] = system: lung cancer (4 cell lines); experiment: CellTiter-Glo Viability Assay, lung cancer; type: cell-based; settings: Homo sapiens, inhibition of cancer cell proliferation
[6] = system: haematopoietic & lymphoid tumors (13 cell lines); experiment: CellTiter-Glo Viability Assay, haematopoietic & lymphoid tumors; type: cell-based; settings: Homo sapiens, inhibition of cancer cell proliferation
[7] = system: colorectal cancer (6 cell lines); experiment: CellTiter-Glo Viability Assay, colorectal cancer; type: cell-based; settings: Homo sapiens, inhibition of cancer cell proliferation
all 50 cell lines = experiment: CellTiter-Glo Viability Assay, average across all cell lines; type: cell-based; settings: Homo sapiens; across all 50 cell lines; read-out: average EC50 for inhibition of cancer cell proliferation
How it was run: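 Luminescent ATP read-out (CellTiter-Glo) after a 4-day compound exposure at 37° C served as the viability measure. Cells were seeded at 300-3,000/well, compound wells run in duplicate against DMSO controls, and EC50 values came from fitted dose-response curves.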

- EC50 ([1]; BXPC-3, BxPC3 cell line, read-out: Pancreatic cancer, EC50 BxPC3): 527 nM
- EC50 ([1]; CAPAN-1, Capan1 cell line, read-out: Pancreatic cancer, EC50 Capan1): 224 nM
- EC50 ([1]; Capan-2, Capan2 cell line, read-out: Pancreatic cancer, EC50 Capan2): 295 nM
- EC50 ([1]; MIA PaCa-2 cell line, read-out: Pancreatic cancer, EC50 MIA PaCa-2): 148 nM
- EC50 ([1]; PANC 05.04 cell line, read-out: Pancreatic cancer, EC50 PANC 05.04): 419 nM
- EC50 ([1]; PANC-1 cell line, read-out: Pancreatic cancer, EC50 PANC-1): 488 nM
- EC50 ([1]; UPAFII cell line, read-out: Pancreatic cancer, EC50 UPAFII): 135 nM
- EC50 ([2]; SNU-398, SNU398 cell line, read-out: Liver cancer, EC50 SNU398): 96 nM
- EC50 ([2]; HEPG2 cell line, read-out: Liver cancer, EC50 HEPG2): > 10000 nM
- EC50 ([2]; PLC/PRF/5 cell line, read-out: Liver cancer, EC50 PLC/PRF/5): 350 nM
- EC50 (MCF7): 683 nM
- EC50 (ZR-75-1): 506 nM
- EC50 (BT-549): 210 nM
- EC50 (T47D): 635 nM
- EC50 (HCC1599): 94 nM
- EC50 (CAMA1): 399 nM
- EC50 (DU4475): 420 nM
- EC50 (MDA-MB-231-Luc): > 10000 nM
- EC50 ([3]; DU-145, read-out: Prostate cancer EC50 Du-145): 239 nM
- EC50 ([3]; PC-3, PC3 cell line, inhibition of cancer cell proliferation, read-out: Prostate cancer EC50 PC3): 250 nM
- EC50 ([3]; 22Rv1 cell line, inhibition of cancer cell proliferation, read-out: Prostate cancer EC50 22Rv1): 414 nM
- EC50 ([3]; LNCap clone FGC cell line, inhibition of cancer cell proliferation, read-out: Prostate cancer EC50 LNCap clone FGC): 509 nM
- EC50 ([3]; VCaP (Sigma) cell line, inhibition of cancer cell proliferation, read-out: Prostate cancer EC50 VCaP (Sigma)): 505 nM
- EC50 ([4]; PA-1, PA1 cell line, read-out: Ovarian cancer, EC50 (μM) PA1): > 10 µM
- EC50 ([4]; TOV112D, TOV-112D cell line, read-out: Ovarian cancer, EC50 (μM) TOV-112D): 0.143 µM
- EC50 ([4]; OV-90 cell line, read-out: Ovarian cancer, EC50 (μM) OV-90): 0.562 µM
- EC50 ([4]; OVCAR-3 cell line, read-out: Ovarian cancer, EC50 (μM) OVCAR-3): 0.171 µM
- EC50 (CLK3): 12 nM
- EC50 (CLK2): 4 nM
- EC50 ([5]; A-427, A427 cell line, read-out: Lung cancer, EC50 (μM) A427): 0.452 µM
- EC50 ([5]; HCC78, HCC-78 cell line, read-out: Lung cancer, EC50 (μM) HCC-78): 0.64 µM
- EC50 ([5]; NCI-H460 cell line, read-out: Lung cancer, EC50 (μM) NCI-H460): 0.564 µM
- EC50 ([5]; NCI-H522 cell line, read-out: Lung cancer, EC50 (μM) NCI-H522): 0.412 µM
- EC50 ([6]; DND41, DND-41 cell line, read-out: Haematopoietic & Lymphoid tumors, EC50 (μM) DND-41): 0.207 µM
- EC50 ([6]; MV4-11, MV-4-11 cell line, read-out: Haematopoietic & Lymphoid tumors, EC50 (μM) MV-4-11): 0.067 µM
- EC50 ([6]; Rec1, REC-1 cell line, read-out: Haematopoietic & Lymphoid tumors, EC50 (μM) REC-1): 0.082 µM
- EC50 ([6]; SU-DHL-4, SUDHL4 cell line, read-out: Haematopoietic & Lymphoid tumors, EC50 (μM) SUDHL4): 0.491 µM
- EC50 ([6]; HL-60 cell line, read-out: Haematopoietic & Lymphoid tumors, EC50 (μM) HL-60): 0.252 µM
- EC50 ([6]; JM1 cell line, read-out: Haematopoietic & Lymphoid tumors, EC50 (μM) JM1): 0.175 µM
- EC50 ([6]; JURKAT, Clone E6-1 cell line, read-out: Haematopoietic & Lymphoid tumors, EC50 (μM) JURKAT, Clone E6-1): 0.466 µM
- EC50 ([6]; JeKo-1 cell line, read-out: Haematopoietic & Lymphoid tumors, EC50 (μM) JeKo-1): 0.109 µM
- EC50 ([6]; KASUMI-1 cell line, read-out: Haematopoietic & Lymphoid tumors, EC50 (μM) KASUMI-1): 0.209 µM
- EC50 ([6]; Loucy cell line, read-out: Haematopoietic & Lymphoid tumors, EC50 (μM) Loucy): 0.241 µM
- EC50 ([6]; MOLT-4 cell line, read-out: Haematopoietic & Lymphoid tumors, EC50 (μM) MOLT-4): 0.13 µM
- EC50 ([6]; TF-1 cell line, read-out: Haematopoietic & Lymphoid tumors, EC50 (μM) TF-1): 0.226 µM
- EC50 ([6]; TOLEDO cell line, read-out: Haematopoietic & Lymphoid tumors, EC50 (μM) TOLEDO): 0.122 µM
- EC50 ([7]; HCT-116, HCT116 cell line, read-out: Colorectal cancer, EC50 (μM) HCT116): 0.077 µM
- EC50 ([7]; HT-29, HT29 cell line, read-out: Colorectal cancer, EC50 (μM) HT29): 0.198 µM
- EC50 ([7]; SW-620, SW620 cell line, read-out: Colorectal cancer, EC50 (μM) SW620): 0.067 µM
- EC50 ([7]; DLD-1 cell line, read-out: Colorectal cancer, EC50 (μM) DLD-1): 0.173 µM
- EC50 ([7]; SW48 cell line, read-out: Colorectal cancer, EC50 (μM) SW48): 0.059 µM
- EC50 ([7]; SW480 cell line, read-out: Colorectal cancer, EC50 (μM) SW480): 0.136 µM
Structure (SMILES): CC(C)Nc1cncc(-c2ccc3cnc(NC(=O)c4cn(C5CCN(CCF)CC5)nn4)cc3c2)n1 [Compound 85]
- EC50 (all 50 cell lines): 880 nM

— patent US20220062240A1, “METHODS OF TREATING CANCER USING A CLK INHIBITOR” (BioSplice Therapeutics, Inc., priority 2018, published 2022)
